Patent US4226857A, “Synthetic peptides having pituitary growth hormone releasing activity” (priority 1979, dated 1980)
Square brackets hold non-standard residues; d marks the D form. Peptide text beside a SMILES is read from it.

Test system: pituitaries
Assay: In vitro growth hormone release study (rat pituitary incubation, GH radioimmunoassay)
Type: cell-based
Details: pituitaries of 20 day old female rats, Δ of GH levels between I3, I4 and P2, ± SEM
Method: Female rats of the CD-1 strain were housed in a constant temperature room at 24° C. with 14 hours light and 10 hours darkness. The rats were fed Purina brand rat chow ab libitum.
All studies were started between 0800 and 1000 hours.
Pituitaries were removed from 20 day old female rats. Two pituitaries were incubated at 36° C. in 1 ml of lactated Ringer's solution in 10 ml polytetrafluoroethylene beakers in a Dubnoff Shaker (90 cycles/min.). The pituitaries were incubated a total of 4 hours (P1, P2, I3, and I4). After two successive one hour preincubation periods (P1, P2), the peptide was added to the incubation medium hourly for 2 hours (I3, I4).
This in vitro study was performed in triplicate and a standard radioimmunoassay of growth hormone present in the incubation medium was performed in duplicate. The hormonal activity was calculated as the difference (Δ) of growth hormone (GH) levels between I3, I4 and P2, i.e., (I3 -P2) and (I4 -P2). P values were calculated by Students' t test using six growth hormone values for each value recorded.
The growth hormone radioimmunoassay reagents were distributed by the National Institute of Arthritis and […] (NIAMDD) program. The growth hormone values were calculated in terms of nanograms (ng) of a rat standard with a growth hormone potency of 0.61 units/mg.

[1] = peptide 0.1μg, P <0.001 unless otherwise noted

| Compound | In vitro growth hormone release (ΔGH) [1] | In vitro growth hormone release (ΔGH) (peptide 1μg, P <0.001) | In vitro growth hormone release (ΔGH) (peptide 10μg, P <0.001) | In vitro growth hormone release (ΔGH) (peptide 0.3μg, P <0.001) |
| --- | --- | --- | --- | --- |
| NC(=O)[C@@H](Cc1ccccc1)NC(=O)[C@H](Cc1c[nH]c2ccccc12)NC(=O)[C@H](CO)NC(=O)[C@@H](Cc1c[nH]c2ccccc12)NC(=O)[C@@H](N)Cc1ccc(O)cc1 [H2 N--Tyr--D-Trp--Ser--Trp--D-Phe--CONH2, H2 N-Tyr-D-Trp-Ser-Trp-D-Phe-CONH2] (H-Y[dW]SW[dF]-NH2) | 353 ± 144 ngΔGH/ml incubation medium | 3119 ± 413 ngΔGH/ml incubation medium | 3831 ngΔGH/ml incubation medium | – |
| C[C@H](NC(=O)[C@@H](Cc1c[nH]c2ccccc12)NC(=O)[C@@H](N)Cc1ccc(O)cc1)C(=O)N[C@@H](Cc1c[nH]c2ccccc12)C(=O)N[C@H](Cc1ccccc1)C(N)=O [H2 N--Tyr--D-Trp--Ala--Trp--D-Phe--CONH2, H2 N-Tyr-D-Trp-Ala-Trp-D-Phe-CONH2] (H-Y[dW]AW[dF]-NH2) | 3409 ± 455 ngΔGH/ml incubation medium | 4611 ± 510 ngΔGH/ml incubation medium | 5000 ± 662 ngΔGH/ml incubation medium | 4540 ± 1200 ngΔGH/ml incubation medium |
